In one assay the test system is A549 cells. Kind of assay: Cell growth, CellTiter-Glo Luminescent Cell Viability Assay, A549. The class given is cell-based. The conditions noted are these: Homo sapiens, 72 h incubation, read-out: IC50 antiproliferative assay A549. The source says: (§1) CellTiter-Glo® Luminescent Cell Viability Assay (Promega) is a homogeneous method of determining the number of viable cells in culture based on quantitation of the present ATP, which indicates the presence of metabolically active cells. The homogeneous assay procedure involves addition of a single reagent (CellTiter-Glo® Reagent) directly to the cells, which leads to cell lysis and generation of a luminescent signal proportional to the amount of the ATP and the number of cells present in culture. The assay relies on the properties of a proprietary thermostable luciferase (Ultra-Glo® recombinant luciferase), which generates a luminescent signal.
(§2) K562, A549 and HCT-116 cells, in exponential growth, were incubated for 72 h with different concentrations of the inhibitors. After 72 h, a volume of CellTiter-Glo® Reagent equal to the volume of cell culture medium was added. The content was mixed for 2 min to induce cell lysis. The luminescence was recorded after further 10 min at RT in order to obtain a stabilized luminescent signal.
(§3) The IC50 was calculated using GraphPad Software.
(§4) IC50 results were allocated to one of 3 ranges as follows: Range A: IC50≦1.0 μM; Range B: from 1.0 to 3.0 μM; Range C: IC50≧3.0 μM.
A general note: Cellular ATP, detected with luciferase, serves as a proxy for viable cell number.

Assay [1] relates to HDAC (nuclear fraction of Hela cells). Kind of assay: Assay of enzyme inhibition of HDAC (BIOMOL Kit). The settings on record: substrate 200 μM, 15 min at RT. It is filed as biochemical. How it is done: 2.2 Assay of Enzyme Inhibition of HDAC
The in-vitro activity of HDAC inhibitors was assayed using a BIOMOL Kit, according to the instructions from the manufacturer (Biomolecular Research Laborator). 15 μl of 30× diluted nuclear fraction of Hela cells, was diluted to 50 μl with the assay buffer containing the HDAC inhibitor and the substrate (lysine with acetylated amino group on the side chain) at a concentration of 200 μM. The samples were incubated for 15 min at RT and then exposed to a developer (10 min at RT). In this last step a fluorophore was produced, whose fluorescence was measured using an excitation wavelength of 355 nm and an emission at 460 nm. The IC50 was calculated using GraphPad Software.

The test system of another assay is K562 cells. The experiment in a line: Cell growth, CellTiter-Glo Luminescent Cell Viability Assay, K562. It is filed as cell-based. The conditions noted are these: Homo sapiens, 72 h incubation, read-out: IC50 antiproliferative assay K562.
Excerpt: as §1, §2, §3, §4

The test system of a further assay is HCT-116 cells. Kind of assay: Cell growth, CellTiter-Glo Luminescent Cell Viability Assay, HCT-116. The settings on record: Homo sapiens, HCT116 cells, 72 h incubation, read-out: IC50 antiproliferative assay HCT116. The class given is cell-based.
Excerpt: as §1, §2, §3, §4

Some results are limits rather than exact numbers.

For orientation: IC50 means the midpoint of a concentration-inhibition curve. Take `O=C(/C=C/c1ccc2c(c1)C(=NOCc1ccccc1)CC1(CCN(Cc3ccccc3)CC1)O2)NO` (racemic) [Example 17, (E)-3-{1′-Benzyl-4-benzyloxyimino-spiro[chromane-2,4′-piperidine]-6-yl}-N-hydroxy-acrylamide]: the IC50 with A549 cells was 1000 to 3000 nM; in assay [1] it was over 1000 nM; with K562 cells, 1000 to 3000 nM; with HCT-116 cells it was 1000 to 3000 nM.
In the case of `CON=C1CC2(CCN(Cc3ccccc3)CC2)Oc2ccc(/C=C/C(=O)NO)cc21` (racemic) [Example 18, (E)-3-{1′-Benzyl-4-methyloxyimino-spiro[chromane-2,4′-piperidine]-6-yl}-N-hydroxy-acrylamide], the IC50 in the assay with A549 cells is 1000 to 3000 nM; in assay [1], 100 to 1000 nM; in the assay on K562 cells, 1000 to 3000 nM; in the assay on HCT-116 cells it was at most 1000 nM.
With `O=C(/C=C/c1ccc2c(c1)C(=O)CC1(CCNCC1)O2)NO` [Example 1, (E)-3-{4-oxo-spiro[chromane-2,4′-piperidine]-6-yl}-N-hydroxy-acrylamide], the IC50 in the assay on A549 cells is 1000 to 3000 nM; in assay [1] it was under 100 nM; in the assay with K562 cells it was at least 3000 nM; with HCT-116 cells, 1000 to 3000 nM.
For `O=C(/C=C/c1ccc2c(c1)C(=O)CC1(CCN(Cc3ccccc3)CC1)O2)NO` [Example 2, (E)-3-{1′-Benzyl-4-oxo-spiro[chromane-2,4′-piperidine]-6-yl}-N-hydroxy-acrylamide], the IC50 with A549 cells was at most 1000 nM; in assay [1], 100 to 1000 nM; in the assay with K562 cells, at most 1000 nM; in the assay on HCT-116 cells it was at most 1000 nM.
Consider `CC(=O)N1CCC2(CC1)CC(=O)c1cc(/C=C/C(=O)NO)ccc1O2` [Example 3, (E)-3-{1′-Acetyl-4-oxo-spiro[chromane-2,4′-piperidine]-6-yl}-N-hydroxy-acrylamide], for which the IC50 in the assay on A549 cells was at least 3000 nM; in assay [1], 100 to 1000 nM; in the assay with K562 cells, at least 3000 nM; in the assay on HCT-116 cells, at least 3000 nM.
Regarding `O=C(/C=C/c1ccc2c(c1)C(=O)CC1(CCN(C(=O)c3ccccc3)CC1)O2)NO` [Example 4, (E)-3-{1′-Benzoyl-4-oxo-spiro[chromane-2,4′-piperidine]-6-yl}-N-hydroxy-acrylamide], the IC50 with A549 cells was at least 3000 nM; in assay [1], 100 to 1000 nM; in the assay on K562 cells, 1000 to 3000 nM; with HCT-116 cells, 1000 to 3000 nM.
Turning to `CN1CCC2(CC1)CC(=O)c1cc(/C=C/C(=O)NO)ccc1O2` [Example 5, (E)-3-{1′-Methyl-4-oxo-spiro[chromane-2,4′-piperidine]-6-yl}-N-hydroxy-acrylamide], the IC50 in the assay with A549 cells is 1000 to 3000 nM; in assay [1] it was 100 to 1000 nM; in the assay on K562 cells, at most 1000 nM; with HCT-116 cells it was at most 1000 nM.
With `CCOC(=O)N1CCC2(CC1)CC(=O)c1cc(/C=C/C(=O)NO)ccc1O2` [Example 6, (E)-3-{1′-Ethyloxycarbonyl-4-oxo-spiro[chromane-2,4′-piperidine]-6-yl}-N-hydroxy-acrylamide], the IC50 in the assay on A549 cells is at least 3000 nM; in assay [1] it was 100 to 1000 nM; in the assay with K562 cells, 1000 to 3000 nM; with HCT-116 cells it was 1000 to 3000 nM.
`O=C(/C=C/c1ccc2c(c1)C(=O)CC1(CCN(c3ccccc3)CC1)O2)NO` [Example 7, (E)-3-{1′-Phenyl-4-oxo-spiro[chromane-2,4′-piperidine]-6-yl}-N-hydroxy-acrylamide]: the IC50 in the assay with A549 cells was 1000 to 3000 nM; in assay [1], 100 to 1000 nM; in the assay on K562 cells it was at most 1000 nM; in the assay with HCT-116 cells, 1000 to 3000 nM.
Turning to `O=C(/C=C/c1ccc2c(c1)OC1(CCNCC1)CC2=O)NO` [Example 8, (E)-3-{4-oxo-spiro[chromane-2,4′-piperidine]-7-yl}-N-hydroxy-acrylamide], the IC50 was at least 3000 nM with A549 cells, over 1000 nM in assay [1], at least 3000 nM in the assay with K562 cells and at least 3000 nM with HCT-116 cells.
As to `O=C(/C=C/c1ccc2c(c1)OC1(CCN(Cc3ccccc3)CC1)CC2=O)NO` [Example 9, (E)-3-{1′-Benzyl-4-oxo-spiro[chromane-2,4′-piperidine]-7-yl}-N-hydroxy-acrylamide], the IC50 in the assay on A549 cells was at least 3000 nM; in assay [1], over 1000 nM; in the assay with K562 cells, at least 3000 nM; in the assay on HCT-116 cells, at least 3000 nM.
On to `CC(=O)N1CCC2(CC1)CC(=O)c1ccc(/C=C/C(=O)NO)cc1O2` [Example 10, (E)-3-{1′-Acetyl-4-oxo-spiro[chromane-2,4′-piperidine]-7-yl}-N-hydroxy-acrylamide], for which the IC50 with A549 cells was at least 3000 nM; in assay [1] it was over 1000 nM; in the assay with K562 cells, at least 3000 nM; in the assay with HCT-116 cells, at least 3000 nM.
For the compound `O=C(/C=C/c1ccc2c(c1)OC1(CCN(C(=O)c3ccccc3)CC1)CC2=O)NO` [Example 11, (E)-3-{1′-Benzoyl-4-oxo-spiro[chromane-2,4′-piperidine]-7-yl}-N-hydroxy-acrylamide], the IC50 with A549 cells is at least 3000 nM; in assay [1], 100 to 1000 nM; in the assay with K562 cells it was at least 3000 nM; in the assay on HCT-116 cells, at least 3000 nM.
As for `CCOC(=O)N1CCC2(CC1)CC(=O)c1ccc(/C=C/C(=O)NO)cc1O2` [Example 12, (E)-3-{1′-Ethyloxycarbonyl-4-oxo-spiro[chromane-2,4′-piperidine]-7-yl}-N-hydroxy-acrylamide], the IC50 with A549 cells is 1000 to 3000 nM; in assay [1] it was 100 to 1000 nM; in the assay on K562 cells, 1000 to 3000 nM; in the assay on HCT-116 cells, at least 3000 nM.
`O=C(/C=C/c1ccc2c(c1)CCC1(CCN(Cc3ccccc3)CC1)O2)NO` [Example 13, (E)-3-{1′-Benzyl-spiro[chromane-2,4′-piperidine]-6-yl}-N-hydroxy-acrylamide]: the half-maximal inhibitory concentration (IC50) in the assay on A549 cells is at least 3000 nM; in assay [1], over 1000 nM; with K562 cells it was at least 3000 nM; in the assay with HCT-116 cells it was at least 3000 nM.
With `O=C(/C=C/c1ccc2c(c1)C(O)CC1(CCN(Cc3ccccc3)CC1)O2)NO` (stereo not drawn) [Example 14, (E)-3-{1′-Benzyl-4-hydroxy-spiro[chromane-2,4′-piperidine]-6-yl}-N-hydroxy-acrylamide], the IC50 with A549 cells is at least 3000 nM; in assay [1] it was over 1000 nM; with K562 cells, 1000 to 3000 nM; with HCT-116 cells it was 1000 to 3000 nM.
As for `O=C(/C=C/c1ccc2c(c1)C=CC1(CCN(Cc3ccccc3)CC1)O2)NO` [Example 15, (E)-3-{1′-Benzyl-spiro[chromene-2,4′-piperidine]-6-yl}-N-hydroxy-acrylamide], the IC50 with A549 cells was at least 3000 nM; in assay [1] it was over 1000 nM; in the assay with K562 cells it was at least 3000 nM; with HCT-116 cells it was at least 3000 nM.
Turning to `CC(=O)NC1CC2(CCN(Cc3ccccc3)CC2)Oc2ccc(/C=C/C(=O)NO)cc21` (stereo not drawn) [Example 16, (E)-3-{1′-Benzyl-4-acetylamino-spiro[chromane-2,4′-piperidine]-6-yl}-N-hydroxy-acrylamide], the IC50 with A549 cells was at least 3000 nM; in assay [1], over 1000 nM; in the assay with K562 cells it was at least 3000 nM; in the assay on HCT-116 cells, at least 3000 nM.
`Cc1ccc(CCN2CCC3(CC2)CC(=O)c2cc(/C=C/C(=O)NO)ccc2O3)cc1` [Example 61, (E)-3-{1′-[2-(4-Methyl-phenyl)-ethyl]-4-oxo-spiro[chromane-2,4′-piperidine]-6-yl}-N-hydroxy-acrylamide] gave an IC50 in assay [1] of under 100 nM.
The same measure, in the same setting: under `O=C(/C=C/c1ccc2c(c1)C(=O)CC1(CCN(Cc3ccc4ccccc4n3)CC1)O2)NO` [Example 65, (E)-3-{1′-(Quinolin-2-ylmethyl)-4-oxo-spiro[chromane-2,4′-piperidine]-6-yl}-N-hydroxy-acrylamide] stands under 100 nM.
Same read-out and setting: with `O=C(/C=C/c1ccc2c(c1)C(=O)CC1(CCN(Cc3cnc4ccccc4c3)CC1)O2)NO` [Example 66, (E)-3-{1′-(Quinolin-3-ylmethyl)-4-oxo-spiro[chromane-2,4′-piperidine]-6-yl}-N-hydroxy-acrylamide] the figure was 100 to 1000 nM; with `O=C(/C=C/c1ccc2c(c1)C(=O)CC1(CCN(Cc3ccccc3-c3ccccc3)CC1)O2)NO` [Example 67, (E)-3-{1′-(Biphenyl-2yl-methyl)-4-oxo-spiro[chromane-2,4′-piperidine]-6-yl}-N-hydroxy-acrylamide], 100 to 1000 nM.
Same read-out and setting: with `O=C(/C=C/c1ccc2c(c1)C(=O)CC1(CCN(C3CCCC3)CC1)O2)NO` [Example 70, (E)-3-{1′-Cyclopentyl-4-oxo-spiro[chromane-2,4′-piperidine]-6-yl}-N-hydroxy-acrylamide] the figure was 100 to 1000 nM; with `O=C(/C=C/c1ccc2c(c1)C(=O)N(Cc1ccccc1)C1(CCNCC1)O2)NO` [Example 82, (E)-3-{3,4-Dihydro-3-benzyl-4-oxo-spiro[2H-(1,3)-benzoxazine-2,4′-piperidin]-6-yl}-N-hydroxy-acrylamide], under 100 nM.

Source of the values: patent US9115148B2, “Spirocyclic derivatives as histone deacetylase inhibitors” (DAC S.R.L., priority 2008, dated 2015).
